Laboratory results as given in US11390602B2, “N-alkyl-N-cyanoalkylbenzamide compound and use thereof” (JIANGSU FLAG CHEMICAL INDUSTRY CO., LTD., priority 2017, dated 2022).
Read-outs that look alike come from different tables or passages of the source.

Tested on: Plutella xylostella
Test: Insecticidal effect on Plutella xylostella (leaf disc immersion)
Format: in vivo
Conditions: foliar, 72 h, read-out: insecticidal activity on Plutella xylostella (mortality %)
Procedure: The test reagents were all dissolved in a mixed solvent of acetone:N′N′-dimethylcarboxamide (1:1) to give a 1000 mg/L solution. 1% Tween-80 was added as an emulsifier to each solution. These solutions were then diluted with 1% Tween-20 solution in water to give desired concentrations of test solutions. An aqueous solution containing 1% Tween-20 was used as a control.
Third instar larvae of Plutella xylostella were used. Cabbages were washed, air dried, punched into leaf discs, immersed in reagent solutions for 10 sec, taken out, naturally dried and then placed in a Petri dish. 10 third-instar larvae of Plutella xylostella were inoculated to each Petri dish, and three replicates were set. The number of deaths in 3 days was investigated, and the mortality was calculated.

[1] = concentration 0.05 ppm, third instar larvae, 3 days
[2] = concentration 0.5 ppm, third instar larvae, 3 days

| SMILES | mortality at 0.01 ppm [%] | mortality at 0.05 ppm [%] | mortality at 0.5 ppm [%] | mortality at 0.05 ppm [1] [%] | mortality at 0.5 ppm [2] [%] | mortality at 0.01 ppm (concentration 0.01 ppm, third instar larvae, 3 days) [%] |
| --- | --- | --- | --- | --- | --- | --- |
| CN(C(=O)c1cc(Cl)cc(Cl)c1NC(=O)c1cc(Br)nn1-c1ncccc1Cl)C(C)(C)C#N [Compound 1.15, N-(6-N-((2-cyanopropan-2-yl)-N-methylcarbamoyl)-2,4-dichlorophenyl)-1-(3-chloropyridin-2-yl)-3-bromo-1H-pyrazol-5-carboxamide] | 66.7 | 86.7 | 100 | – | – | – |
| Cc1cc(Cl)cc(C(=O)NC(C)(C)C#N)c1NC(=O)c1cc(Br)nn1-c1ncccc1Cl [KC1] | – | – | – | 45.7 | 71.9 | – |
| CC(C)(C#N)NC(=O)c1cc(Cl)cc(Cl)c1NC(=O)c1cc(Br)nn1-c1ncccc1Cl [KC2] | – | – | – | 51.4 | 88.2 | 28.1 |
